Reference: patent publication US9981972B2, “N-hydroxy bicyclic hydantoin carbamates as tools for identification of serine hydrolase targets” (ABIDE THERAPEUTICS, INC., priority 2014, dated 2018)

Assays:
Assay in all cases: Gel-based competitive ABPP in vitro, mouse brain membrane proteome
Format in all cases: biochemical
ABHD12 = biological target: T1, ABHD12 (Mus musculus, UniProt Q99LR1); conditions: mouse brain (mem) proteome
T1 construct: from tissue; host or cells: mouse brain, membrane fraction
T1 sequence (Q99LR1 1-398): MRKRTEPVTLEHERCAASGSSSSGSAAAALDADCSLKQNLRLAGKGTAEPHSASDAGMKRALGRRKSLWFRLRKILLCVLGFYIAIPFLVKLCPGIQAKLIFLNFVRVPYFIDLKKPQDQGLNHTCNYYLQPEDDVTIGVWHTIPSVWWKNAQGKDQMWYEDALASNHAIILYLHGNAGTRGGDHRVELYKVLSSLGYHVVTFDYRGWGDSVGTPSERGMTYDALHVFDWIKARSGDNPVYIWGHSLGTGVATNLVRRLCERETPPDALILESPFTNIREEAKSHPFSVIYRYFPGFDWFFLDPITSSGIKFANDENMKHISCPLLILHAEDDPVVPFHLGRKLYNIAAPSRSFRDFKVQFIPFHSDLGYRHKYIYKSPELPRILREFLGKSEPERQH
Procedure: (§1) Assay Overview: The purpose of this assay was to determine whether test compounds can inhibit LYPLA1 and LYPLA2 in a complex proteomic lysate and to assess anti-target inhibition using a competitive activity-based proteomic profiling (ABPP) assay. In this assay, a complex proteome endogenously expressing LYPLA1/2 was incubated with test compound followed by reaction with a rhodamine-conjugated fluorophosphonate (FP-Rh) serine-hydrolase specific activity-based probe. The reaction products were separated by SDS-PAGE and visualized in-gel using a flatbed fluorescence scanner. The percentage activity remaining was determined by measuring the integrated optical density of the bands. […] Percent inhibition was calculated relative to a DMSO (no compound) control.
(§2) Protocol Summary: Mouse brain membrane proteome (50 μL reaction volume, 1 mg/mL in DPBS) was treated with 0.1-100 μM test compound (1 μL of a 50× stock in DMSO) for 30 minutes at 37° C. FP-Rh (1 μL of 50× stock in DMSO, Thermo #88318) was added to a final concentration of 2 μM. The reactions were incubated for 30 minutes at 25° C., quenched with 16 μL 4×SDS-PAGE loading buffer (reducing), separated by SDS-PAGE and visualized by in-gel fluorescent scanning. The percentage activity remaining was determined by measuring the integrated optical density of the bands relative to a DMSO-only (no compound) control. Assay Cutoff: Compounds with ≥50% inhibition of targets at 1 μM test compound concentration were considered active.

PLA2G7 = biological target: T2, PLA2G7 (Mus musculus, UniProt Q60963); conditions: mouse brain (mem) proteome
T2 construct: from tissue; host or cells: mouse brain, membrane fraction
T2 sequence (Q60963 22-440): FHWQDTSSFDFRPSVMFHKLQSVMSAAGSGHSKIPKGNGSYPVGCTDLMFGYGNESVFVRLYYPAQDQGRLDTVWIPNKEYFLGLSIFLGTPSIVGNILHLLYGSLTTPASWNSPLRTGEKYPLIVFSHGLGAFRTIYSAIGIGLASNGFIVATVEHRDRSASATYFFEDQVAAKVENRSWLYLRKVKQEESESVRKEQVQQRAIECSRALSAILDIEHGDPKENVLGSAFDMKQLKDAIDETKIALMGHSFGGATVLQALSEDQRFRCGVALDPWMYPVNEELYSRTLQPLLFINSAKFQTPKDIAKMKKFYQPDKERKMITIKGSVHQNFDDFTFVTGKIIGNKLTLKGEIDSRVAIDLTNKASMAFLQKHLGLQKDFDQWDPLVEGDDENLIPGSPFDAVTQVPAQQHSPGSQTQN
Procedure: as §1, §2

ABHD3 = biological target: T3, ABHD3 (Mus musculus, UniProt Q91ZH7); conditions: mouse brain (mem) proteome
T3 construct: from tissue; host or cells: mouse brain, membrane fraction
T3 sequence (Q91ZH7 1-411): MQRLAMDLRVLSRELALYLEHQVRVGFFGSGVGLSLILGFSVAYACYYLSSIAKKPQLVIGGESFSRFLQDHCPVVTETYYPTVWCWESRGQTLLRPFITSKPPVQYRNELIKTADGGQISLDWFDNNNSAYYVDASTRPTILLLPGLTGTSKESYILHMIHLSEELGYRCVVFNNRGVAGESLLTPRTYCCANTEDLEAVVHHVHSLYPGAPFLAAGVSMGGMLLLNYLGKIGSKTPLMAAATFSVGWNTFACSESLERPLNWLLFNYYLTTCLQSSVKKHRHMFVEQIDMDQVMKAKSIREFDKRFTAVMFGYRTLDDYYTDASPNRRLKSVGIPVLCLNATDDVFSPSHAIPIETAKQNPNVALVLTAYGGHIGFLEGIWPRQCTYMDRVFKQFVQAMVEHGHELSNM
Procedure: as §1, §2

LYPLA1 = biological target: T4, LYPLA1 (Mus musculus, UniProt P97823)
T4 construct: a complex proteome endogenously expressing LYPLA1/2 was incubated with test compound; from tissue; host or cells: mouse brain, membrane fraction
How it was run: (§3)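 Mouse brain membrane proteome (1 mg/mL in DPBS) was treated with compound (0.1-100 μM) for 30 min at 37 °C, then labeled with FP-Rh (2 μM final, 30 min, 25 °C). Bands were resolved by SDS-PAGE and scanned in-gel, with inhibition taken from band optical density versus DMSO. Targets counted as active or anti-targets at ≥50% inhibition.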

LYPLA2 = biological target: T5, LYPLA2 (Mus musculus, UniProt Q9WTL7)
T5 construct: a complex proteome endogenously expressing LYPLA1/2 was incubated with test compound; from tissue; host or cells: mouse brain, membrane fraction
How it was run: as §3

[1] = 20 μM, mouse brain (mem) proteome

T4 sequence (P97823 whole entry): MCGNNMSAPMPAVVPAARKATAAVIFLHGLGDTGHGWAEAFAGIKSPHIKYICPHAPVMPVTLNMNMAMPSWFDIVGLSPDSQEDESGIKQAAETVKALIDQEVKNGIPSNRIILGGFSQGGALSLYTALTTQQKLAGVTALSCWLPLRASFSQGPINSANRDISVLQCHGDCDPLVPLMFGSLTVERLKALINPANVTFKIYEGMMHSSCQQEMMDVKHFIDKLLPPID
T5 sequence (Q9WTL7 whole entry): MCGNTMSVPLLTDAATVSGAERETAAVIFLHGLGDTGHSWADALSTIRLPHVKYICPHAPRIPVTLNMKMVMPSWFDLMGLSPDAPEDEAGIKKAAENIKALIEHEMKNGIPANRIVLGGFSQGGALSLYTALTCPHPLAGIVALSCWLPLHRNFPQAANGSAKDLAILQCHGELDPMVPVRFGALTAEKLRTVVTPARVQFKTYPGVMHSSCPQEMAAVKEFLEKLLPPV

Structure (SMILES)	ABHD12 in vitro enzyme activity, % @ 10 μM (ABHD12) [% @]	PLA2G7 in vitro enzyme activity, % @ 1 μM (PLA2G7) [% @]	ABHD3 in vitro enzyme activity, % @ 10 μM (ABHD3) [% @]	LYPLA1 in vitro enzyme activity, % @ 10 μM (LYPLA1; mouse brain (mem) proteome) [% @]	LYPLA2 in vitro enzyme activity, % @ 10 μM (LYPLA2; mouse brain (mem) proteome) [% @]	PLA2G7 in vitro enzyme activity, % @ 10 μM (PLA2G7) [% @]	other results
C#CCOc1ccc(N2CCN(C(=O)ON3C(=O)[C@H]4CN(Cc5ccc(Oc6ccccc6)cc5)CCN4C3=O)CC2)cc1 [Compound 45, (R)-1,3-dioxo-7-(4-phenoxybenzyl)-hexahydroimidazo[1,5-a]pyrazin-2(3H)-yl 4-(4-(prop-2-ynyloxy)phenyl)piperazine-1-carboxylate]	0	100	75	0	0	–	–
C#CCOc1ccc(N2CCN(C(=O)ON3C(=O)[C@@H]4CN(Cc5ccc(Oc6ccccc6)cc5)CCN4C3=O)CC2)cc1 [Compound 44, (S)-1,3-dioxo-7-(4-phenoxybenzyl)-hexahydroimidazo[1,5-a]pyrazin-2(3H)-yl 4-(4-(prop-2-ynyloxy)phenyl)piperazine-1-carboxylate]	0	100	0	0	0	–	–
O=C(ON1C(=O)C2CN(Cc3ccc(Oc4ccccc4)cc3)CCN2C1=O)N1CCC(c2ccccc2)CC1 (centres unmarked) [Compound 38, 1,3-dioxo-7-(4-phenoxybenzyl)hexahydroimidazo[1,5-a]pyrazin-2(3H)-yl 4-phenylpiperidine-1-carboxylate]	–	–	–	–	–	–	LYPLA1 in vitro enzyme activity, % @ 20 μM (LYPLA1; [1]): 0% @; LYPLA2 in vitro enzyme activity, % @ 20 μM (LYPLA2; [1]): 0% @
O=C(ON1C(=O)[C@@H]2CN(Cc3ccc(Br)cc3)CCN2C1=O)N1CCC(CCc2ccc(Cl)cc2)CC1 [Compound 40, (S)-7-(4-bromobenzyl)-1,3-dioxohexahydroimidazo[1,5-a]pyrazin-2(3H)-yl4-(4-chlorophenethyl)piperidine-1-carboxylate]	0	–	0	50	50	100	–
O=C(ON1C(=O)C2CN(C(=O)N3CCOCC3)CCN2C1=O)N1CCC(CCc2ccc(Cl)cc2)CC1 (centres unmarked) [Compound 1, 7-(morpholine-4-carbonyl)-1,3-dioxohexahydroimidazo[1,5-a]pyrazin-2(3H)-yl 4-(4-chloro-phenethyl)piperidine-1-carboxylate]	–	–	–	–	–	–	inhibition at 1 µM (LYPLA1; 1 μM compound, 30 min, one replicate, read-out: LYPLA1 % INH 1 μM): 100%; inhibition at 10 µM (LYPLA1; 10 μM compound, 30 min, one replicate, read-out: LYPLA1 % INH 10 μM): 100%; inhibition at 100 µM (LYPLA1; 100 μM compound, 30 min, one replicate, read-out: LYPLA1 % INH 100 μM): 100%; inhibition at 1 µM (LYPLA2; 1 μM compound, 30 min, one replicate, read-out: LYPLA2 % INH 1 μM): 100%; inhibition at 10 µM (LYPLA2; 10 μM compound, 30 min, one replicate, read-out: LYPLA2 % INH 10 μM): 100%; inhibition at 100 µM (LYPLA2; 100 μM compound, 30 min, one replicate, read-out: LYPLA2 % INH 100 μM): 100%

Second part, led by results:

ABHD12 in vitro enzyme activity, % @ 10 μM (ABHD12) [% @]	PLA2G7 in vitro enzyme activity, % @ 1 μM (PLA2G7) [% @]	ABHD3 in vitro enzyme activity, % @ 10 μM (ABHD3) [% @]	LYPLA1 in vitro enzyme activity, % @ 10 μM (LYPLA1; mouse brain (mem) proteome) [% @]	LYPLA2 in vitro enzyme activity, % @ 10 μM (LYPLA2; mouse brain (mem) proteome) [% @]	PLA2G7 in vitro enzyme activity, % @ 10 μM (PLA2G7) [% @]	Structure (SMILES)	other results
0	100	0	0	0	–	C#CCOc1ccc(N2CCN(C(=O)ON3C(=O)[C@H]4CN(CC5CCN(Cc6ccccc6)CC5)CCN4C3=O)CC2)cc1 [Compound 47, (R)-7-((1-benzylpiperidin-4-yl)methyl)-1,3-dioxo-hexahydroimidazo[1,5-a]pyrazin-2(3H)-yl 4-(4-(prop-2-ynyloxy)phenyl)piperazine-1-carboxylate]	–
50	–	0	–	–	75	C#Cc1ccc(CCC2CCN(C(=O)ON3C(=O)[C@@H]4CN(C(=O)N5CCOCC5)CCN4C3=O)CC2)cc1 [Compound 48, (S)-7-(morpholine-4-carbonyl)-1,3-dioxo-hexahydroimidazo[1,5-a]pyrazin-2(3H)-yl 4-(4-ethynylphenethyl)piperidine-1-carboxylate]	LYPLA1 in vitro enzyme activity, % @ 1 μM (LYPLA1; mouse brain (mem) proteome): 75% @; LYPLA2 in vitro enzyme activity, % @ 1 μM (LYPLA2; mouse brain (mem) proteome): 75% @
0	100	0	50	50	–	C#CCOc1ccc(N2CCN(C(=O)ON3C(=O)[C@@H]4CN(CC5CCN(Cc6ccccc6)CC5)CCN4C3=O)CC2)cc1 [Compound 46, (S)-7-((1-benzylpiperidin-4-yl)methyl)-1,3-dioxo-hexahydroimidazo[1,5-a]pyrazin-2(3H)-yl 4-(4-(prop-2-ynyloxy)phenyl)piperazine-1-carboxylate]	–
0	–	0	–	–	100	C#Cc1ccc(CCC2CCN(C(=O)ON3C(=O)[C@H]4CN(C(=O)N5CCOCC5)CCN4C3=O)CC2)cc1 [Compound 49, (R)-7-(morpholine-4-carbonyl)-1,3-dioxo-hexahydroimidazo[1,5-a]pyrazin-2(3H)-yl 4-(4-ethynylphenethyl)piperidine-1-carboxylate]	LYPLA1 in vitro enzyme activity, % @ 1 μM (LYPLA1; mouse brain (mem) proteome): 75% @; LYPLA2 in vitro enzyme activity, % @ 1 μM (LYPLA2; mouse brain (mem) proteome): 75% @
0	50	0	0	0	–	COc1ccc(N2CCN(C(=O)ON3C(=O)C4CN(CC5CCN(Cc6ccccc6)CC5)CCN4C3=O)CC2)cc1 (centres unmarked) [Compound 52, 7-((1-benzylpiperidin-4-yl)methyl)-1,3-dioxo-hexahydroimidazo[1,5-a]pyrazin-2(3H)-yl 4-(4-methoxyphenyl)piperazine-1-carboxylate]	–
50	–	0	–	–	0	C#Cc1ccc(CCC2CCN(C(=O)ON3C(=O)C4CN(C(=O)N5CCOCC5)CCN4C3=O)CC2)cc1 (centres unmarked) [Compound 53, 7-(morpholine-4-carbonyl)-1,3-dioxo-hexahydroimidazo[1,5-a]pyrazin-2(3H)-yl 4-(4-ethynylphenethyl)piperidine-1-carboxylate]	LYPLA1 in vitro enzyme activity, % @ 1 μM (LYPLA1; mouse brain (mem) proteome): 75% @; LYPLA2 in vitro enzyme activity, % @ 1 μM (LYPLA2; mouse brain (mem) proteome): 75% @
